In article PMC8999917, “Structure–Activity Relationship of Synthetic Ginkgolic Acid Analogs for Treating Type 2 Diabetes by PTPN9 Inhibition” (International Journal of Molecular Sciences, 2022):

Assays:
DUSP9 = biological target: T1, DUSP9 (Homo sapiens, UniProt Q99956); test: DUSP9 enzyme inhibition with DiFMUP substrate; type: biochemical; conditions: DiFMUP 90 µM, DUSP9 200 nM; NA: no activity
T1 construct: made in house; host or cells: Escherichia coli Rosetta (DE3)
T1 sequence (Q99956 1-384): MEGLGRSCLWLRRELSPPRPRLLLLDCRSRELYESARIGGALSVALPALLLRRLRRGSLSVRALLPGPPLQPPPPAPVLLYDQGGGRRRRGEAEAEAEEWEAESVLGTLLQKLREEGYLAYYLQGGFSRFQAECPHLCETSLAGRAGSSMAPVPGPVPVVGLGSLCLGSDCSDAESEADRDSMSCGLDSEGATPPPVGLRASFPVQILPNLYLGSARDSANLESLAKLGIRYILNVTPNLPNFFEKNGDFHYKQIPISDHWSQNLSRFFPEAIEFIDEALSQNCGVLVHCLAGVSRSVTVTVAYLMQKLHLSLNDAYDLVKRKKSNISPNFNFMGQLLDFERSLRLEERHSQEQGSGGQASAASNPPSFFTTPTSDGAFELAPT
Procedure: The purification and kinetic analyses of PTPN9 and DUSP9 (Ser277–581) were performed following methods described in the literature, with slight modifications. PAGE analysis data and enzyme kinetic constants are presented in Figure S1 and Table S1, respectively. Enzyme activity in the presence or absence of the compounds was measured using DiFMUP, a representative PTP fluorogenic substrate. First, the inhibitory effects of compounds 1–3 were evaluated using 50 µM PTPN9 and 20 µM DUSP9. There was an increase in the inhibitory activity of compound 1 for both enzymes as the number of CH2 units increased from 9 to 14 (Figure 2A,B).
Next, the IC50 values of the compounds, which induce a 50% inhibition of DiFMUP hydrolytic enzyme activity, were determined (Table 1). The IC50 values were determined from the dose–response enzyme inhibition curves of each compound. The dose–response curves for compounds 1e and 1f against PTPN9 and DUSP9, respectively, are presented in Figure 2C,D. Dose–response curves were also obtained for the other compounds (Figures S2 and S3).
The methods employed for PTP overexpression and purification have been described in a previous study. In brief, human PTPN9 and DUSP9 were cloned into a pET28a vector (Merk Millipore, Darmstadt, Germany) containing a hexahistidine (His6) tag or a maltose-binding protein (MBP) tag in its N-terminus (see Supplementary Materials). Recombinant genes were separately transformed into Escherichia coli Rosetta (DE3) (Merk Millipore, Darmstadt, Germany), and the overexpression of each gene was induced via the addition of 0.1 mM IPTG (Ducherfa Biochemie, Haarlem, RV, USA). After 16 h of incubation at 18 °C, cell pellets were obtained via centrifugation (3570× g at 4 °C for 15 min), resuspended in lysis buffer (50 mM Tris, pH: 7.5, 500 mM NaCl, 5% glycerol, 0.025% 2-mercaptoethanol, and 1 mM phenyl-methylsulfonyl fluoride (PMSF)), and lysed by ultrasonication. Subsequently, cell lysates were centrifuged at 29,820× g for 30 min at 4 °C; then, the supernatant was collected and incubated with a cobalt affinity resin (TALON® Metal Affinity Resin, Takara Korea, Seoul, Korea). After 1 h of incubation at 4 °C, the desired proteins were eluted by adding the lysis buffer supplemented with 100 mM imidazole. Samples were stored at –80 °C until use.
The enzymatic activities of purified PTPN9 and DUSP9 were measured using 6,8-difluoro-4-methylumbelliferyl phosphate (DiFMUP), the most widely used fluorogenic PTP substrate in the literature. To determine KM values, PTPN9 (0.15 nM) and DUSP9 (200 nM) were added to a reaction buffer (20 mM Bis-tris, pH: 7.0, 150 mM NaCl, 2.5 mM dithiothreitol (DTT), and 0.01% Triton X-100) containing DiFMUP (800, 400, 200, 100, 50, 25, 12.5, or 6.25 μM) in a 96-well black plate. The final reaction volume was 100 µL. The fluorescence intensity was continuously monitored for 10 min (Ex/Em = 355/460 nm) on a Victor™ X4 multilabel plate reader (Perkin Elmer, Norwalk, CT, USA). KM values were obtained using Lineweaver–Burk plots analysis.
To evaluate the enzyme inhibitory effects of GA and its analogs, 10 µl of the enzyme stock solution (1.5 nM PTPN9 and 2 µM DUSP9) in the reaction buffer was added into the mixture of DiFMUP (to a final concentration of 220 µM and 90 µM for PTPN9 and DUSP9, respectively) and each compound (to a final concentration of 50 µM and 20 µM for PTPN9 and DUSP9, respectively) was added to the reaction buffer. Enzyme activity was measured as described above. Half-inhibitory concentration (IC50) values were determined under similar conditions, except for the concentrations of the inhibitors (200, 100, 50, 25, 12.5, 6.25, or 3.125 µM for PTPN9 and 25, 12.5, 6.25, 3.125, 1.563, 0.782, or 0.391 µM for DUSP9). The dose-dependent curve was fitted to the four-parameter logistic regression equation, (y = a + (b – a)/(1 + (x/c)^d), to obtain IC50 values using the Kaleida Graph software Ver. 4.1.3. (Synergy Software Inc, PA, USA).

AMPK phosphorylation = test: Western blot of AMPK phosphorylation in C2C12 myotubes; type: cell-based, mouse
Procedure: To further investigate the mechanism of action of 1e, we evaluated its effects on AMPK and AKT phosphorylation in C2C12 myotubes. […] In line with the results obtained in 3T3-L1 cells, in the absence of insulin, 1e had no effects on basal p-Akt expression levels (Figure 6A).
The expression levels of glucose uptake-related proteins were determined via Western blotting, as previously described. In brief, differentiated 3T3-L1 cells were plated in six-well plates at a 1.5 × 10^4 cells/well density in a final volume of 2 mL. Then, the cells were incubated in the presence of DMSO or different concentrations of the compounds and harvested using a RIPA buffer (Sigma-Aldrich, Saint Louis, MS, USA) and a protease inhibitor cocktail (Roche Korea, Seoul, Korea) after 1 h of incubation. Equivalent amounts of proteins (20 µg) from each lysate were separated by 10% SDS-PAGE and transferred onto PVDF membranes (Merk KgaA, Darmstadt, Germany), where they were maintained for 120 min at 200 mA. […] Secondary antibodies were added to the membranes at a concentration of 1:2000 for 1 h at room temperature, and immunoreactive bands were detected via ECL (GE Healthcare Korea Co., Ltd., Incheon, Korea). […]

| IC50 (DUSP9) | SMILES | AMPK phosphorylation (AMPK phosphorylation) |
| --- | --- | --- |
| 6.4 ± 0.87 µM | CCCCCCCCCCCCCOc1cccc(O)c1C(=O)O [Compound 1e] | significantly upregulated AMPK phosphorylation in a concentration-dependent manner |
| 5.87 ± 0.55 µM | CCCCCCCCCCCCCCCOc1cccc(O)c1C(=O)O [Compound 1f] | – |
